This assay concerns the target protein of SEQ ID NO 1 (yxel gene product) (Bacillus subtilis, UniProt P54948, G69A/I70F/P219S/T91M). The conditions noted are these: sodium acetate 100 mM final concentration; substrate 0.2 mg/ml, 37°, 15 min, PBS buffer; compared with background activity of plasmid-free E. coli strain.

Chain of protein of SEQ ID NO 1 (yxel gene product) (P54948 whole entry G69A/I70F/T91M/P219S): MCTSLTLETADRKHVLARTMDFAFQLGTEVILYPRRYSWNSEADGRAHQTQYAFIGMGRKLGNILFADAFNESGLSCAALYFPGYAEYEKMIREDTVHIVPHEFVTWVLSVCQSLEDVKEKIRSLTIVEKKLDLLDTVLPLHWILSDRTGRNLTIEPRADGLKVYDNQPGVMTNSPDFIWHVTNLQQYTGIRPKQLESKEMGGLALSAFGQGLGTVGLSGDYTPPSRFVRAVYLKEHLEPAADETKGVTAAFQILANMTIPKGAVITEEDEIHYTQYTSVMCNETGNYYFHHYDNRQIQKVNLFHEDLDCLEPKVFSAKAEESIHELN
Text: Cells obtained as in example 2 were harvested by centrifugation and washed twice with PBS buffer to remove residual medium components. The final cell pellet was resuspended in PBS buffer (per liter water: 8 g NaCl, 0.2 g KCl, 1.44 g Na2HPO4, 0.24 g K H2PO4, pH 7.4) to reach a final OD600 of 30. This cell suspension of strains (either without plasmid or carrying the expression vectors described in Example 1) was used for the activity tests. The washed cell suspensions were contacted in PBS buffer with N-alpha-lauryl-glutamin (0.2 mg/ml final concentration, “LG” in FIG. 35), at 37° (final volume 0.25 ml) for 15 min. The actual test was performed as described in example 7 of WO 02/092024 A2, with GC as the test method.

`CC(=O)[O-].[Na+]` [sodium acetate]: the “enzyme activity (inhibition of N-alpha-lauryl-glutamin cleavage)” value is “inhibited to the level of the background activity”.
